From US20070117794A1, “Methods of treatment using oxytocin receptor agonists” (Wyeth, priority 2005, published 2007)
Entries after “also recorded” stand apart in the source; their conditions may differ.

Columns and labels:
rat = conditions: subcutaneous oxytocin; deficit induced by dizocilpine and amphetamine; cited from earlier work
rats = conditions: cited from earlier work
OTR = target: T1, OTR (Homo sapiens, UniProt P30559); conditions: cited from earlier work
T1 sequence (P30559 1-389): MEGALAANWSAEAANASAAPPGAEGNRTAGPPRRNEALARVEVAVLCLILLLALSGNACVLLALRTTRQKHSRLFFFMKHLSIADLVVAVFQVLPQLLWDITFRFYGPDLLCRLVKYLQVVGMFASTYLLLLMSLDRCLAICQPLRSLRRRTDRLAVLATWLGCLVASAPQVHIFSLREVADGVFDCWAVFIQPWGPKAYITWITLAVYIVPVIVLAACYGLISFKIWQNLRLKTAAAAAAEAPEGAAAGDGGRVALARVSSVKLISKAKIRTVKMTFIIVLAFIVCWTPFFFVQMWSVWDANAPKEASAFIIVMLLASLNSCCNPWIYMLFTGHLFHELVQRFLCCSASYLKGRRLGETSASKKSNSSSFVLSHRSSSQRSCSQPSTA

male rats = conditions: OT 1-4 ug/kg, s.c.; cited from earlier work
Male Swiss-Webster mice = assay: Four-Plate Test (FPT), punished crossings; assay type: in vivo, mouse; conditions: for reversal of the anxiolytic-like effect of cpd A / blockade of the anxiolytic-like effect of cpd A (in words): co-administered with cpd A 10 mg/kg; for blockade of the anxiolytic-like effect of cpd A (in words): cpd B 10-30 mg/kg
Protocol: Animals: Male Swiss-Webster mice weighing 18-24 g were housed in groups of 15 in hanging wire cages, allowed access to food and water ad libitum, and maintained on a 12-hour light dark cycle. All behavioral testing was performed during the light cycle. All studies were previously approved by the Institutional Animal Care and Use Committee, and performed in accordance to the Guide for the Care and Use of Laboratory Animals as adopted and promulgated by the National Institutes of Health.
Test Compounds: Oxytocin (American Peptide Company, Sunnyvale, Calif.) was dissolved in a saline vehicle. The oxytocin agonist 4,-(3,5-Dihydroxy-benzyl)-piperazine-1-carboxylic acid 2-methyl-4-(3-methyl-4,10-dihydro-3H-2,3,4,9-tetra-aza-benzo[f]azulene-9-carbonyl)-benzylamide (hereinafter “cpd A”) and oxytocin antagonist 10-[(2-Methyl-2′-trifluoromethyl-[1,1′-biphenyl]-4-yl)carbonyl]-10,11-dihydro-5H-pyrrolo[2,1-c][1,4]benzodiazepine-3-carboxylic acid-bis-(2-hydroxy-ethyl)-amide (hereinafter “cpd B”) (Patent W/O 02/083680) were prepared and dissolved in a 1% Tween-80/1% DMSO/saline vehicle.
ICV injections: Mice were lightly anesthetized with halothane. Oxytocin was administered into either the left or right ventricle by visual location. A 26 gauge Hamilton syringe with 3 mm needle was used for injections and the injection site was visualized by locating the middle of the invisible line that runs diagonally from the left eye to the right ear. Test compounds were injected in a 2 μl total volume.
Four-Plate Test (FPT:) The four-plate apparatus consists of a Plexiglas chamber (18×25×16 cm) floored with four identical rectangular metal plates (8×11 cm), which are separated from one another by a gap of 4 mm and connected to a computerized device that can deliver electric shocks (0.8 mA, 0.5 sec) (Aron et al. Evaluation of a rapid technique for detecting minor tranquilizers, Neuropharmacology 10: 459-69 (1971)). In this test, mice are placed into the chamber and following a brief (18 seconds) habituation period, the animal's innate motivation to explore the novel environment is suppressed by the delivery of a mild foot shock every time the animal crosses any of the boundaries (gaps) while moving from one plate to another (referred to as a ‘punished crossing’). Following any punished crossing, there is a 3-second time out where the mouse may cross the electric plates without receiving another shock. An experimenter blind to the dosing conditions administers shocks, and a computer records the total number of punished crossings an animal makes during a 1-minute testing period. […] Pharmacol Biochem Behav 65: 339-44 (2000)). In all experiments, the testing procedure consisted of either a single injection or two injections followed by a test session 30 minutes later.
Statistical Analysis: One-way analysis of variance (ANOVA) was performed to determine effects of test compound treatments, followed by Least Significant Difference Tests for a post hoc analysis. All figures are shown with average ±SEM.

mouse = conditions: OT 3 mg/kg, i.p.; cited from earlier work
[1] = system: Male Sprague-Dawley derived Rats; assay: Prepulse inhibition of the acoustic startle reflex (PPI), MK801 disrupted; assay type: in vivo, rat
Description: (§1) Prepulse inhibition of the acoustic startle reflex (PPI) is an operational measure of sensorimotor gating that can be measured across many species. Deficits in PPI have been reported in patients with schizophrenia, leading to its use as a preclinical model of the disease. In rats, PPI is decreased in a manner homologous to that seen in schizophrenia following administration of certain psychotomimetic drugs (e.g. MK801; amphetamine). In our study we utilized MK801, a non-competitive NMDA antagonist and d-Amphetamine, a non-selective dopamine agonist.
(§2) Animals: Male Sprague-Dawley derived Rats (SD) weighing 200-250 g were group housed in standard bedding cages, allowed access to food and water ad libitum, and maintained on a 12-hour light dark cycle. All behavioral testing was performed during the light cycle. All studies were previously approved by the Institutional Animal Care and Use Committee, and performed in accordance to the Guide for the Care and Use of Laboratory Animals as adopted and promulgated by the National Institutes of Health.
(§3) Test Compounds: The oxytocin agonist cpd A was dissolved in a 1% Tween-80/1% DMSO/saline vehicle. MK801 (Sigma, St. Louis, Mo.) was dissolved in 2% Tween-80/saline. d-Amphetamine (Sigma, St. Louis, Mo.) was dissolved in saline.
(§4) Each testing chamber (SR-LAB system, San Diego Instruments) consisted of a Plexiglas cylinder (8.8 cm in diameter) mounted on a frame and held in position by four metal pins to a base unit. Movement of the rat within the cylinder was detected by a piezoelectric accelerometer attached below the frame. […] Presentation of acoustic pulse and prepulse stimuli were controlled by the SR-LAB software and interface system, which also digitized, rectified and recorded the responses from the accelerometer. Mean startle amplitude was determined by averaging 100, 1 ms readings taken from the beginning of the pulse stimulus onset. For calibration purposes, sound levels were measured with a Quest sound level meter, scale “A”, with the microphone placed inside the Plexiglas cylinder. […]
Startle amplitude was defined as the mean value of pulse alone trials. To evaluate the effect of drug treatment on startle response, data from the pulse alone trials was analyzed using one-factor ANOVA with repeated measures (one-way randomized block design), followed by a least significant difference (LSD) post-hoc test (comparison was made to vehicle/disrupting agent control). […] Although data for gating at three different prepulse intensities was generated, an averaged gating score across all prepulse intensities was calculated and this was analyzed by one factor ANOVA with repeated measures (one-way randomized block design). […]

[2] = system: Male Sprague-Dawley derived Rats; assay: Prepulse inhibition of the acoustic startle reflex (PPI), d-Amphetamine disrupted; assay type: in vivo, rat; conditions: for reversal of d-amphetamine induced disruption of PPI: i.p., 30 mins prior to test, hydrochloride
Description: as §1, §2, §3, §4

CC[C@H](C)[C@@H]1NC(=O)[C@H](Cc2ccc(O)cc2)NC(=O)[C@@H](N)CSSC[C@@H](C(=O)N2CCC[C@H]2C(=O)N[C@@H](CC(C)C)C(=O)NCC(N)=O)NC(=O)[C@H](CC(N)=O)NC(=O)[C@H](CCC(N)=O)NC1=O [Oxytocin]
restoration of prepulse inhibition (rat): dose-dependently restore prepulse inhibition | open arm entries and time spent in the open arms of the elevated plus-maze (rats; OT 10-100 ng, i.c.v.): increases in open arm entries and time spent in the open arms | activity in the elevated-plus maze (rats; pregnant or lactating rats, but not virgin rats): Anxiolytic activity | selectivity for OT compared to AVP at the OTR (OTR): 10 fold | peripheral locomotor activity in the Open-Field model (male rats): decrease in peripheral locomotor activity | increase in punished crossings from vehicle (Male Swiss-Webster mice; oxytocin 3 μg, icv, 30 minutes prior to testing, p<0.05): 30% | increase in punished crossings from vehicle (Male Swiss-Webster mice; oxytocin 10 μg, icv, 30 minutes prior to testing, p<0.05): 51% | punished crossings (effect in words) (Male Swiss-Webster mice; oxytocin 1-10 μg icv (b94 prints 1-10 mg), 30 minutes prior to testing): dose-dependent increase in punished crossings | activity in elevated-plus maze (mouse): anxiolytic-like activity | reversal of MK801 induced deficits in PPI ([1]; oxytocin 0.04-1 mg/kg s.c., data not shown): reversed the MK801 induced deficits in PPI in rats in a dose dependent manner

C[C@H](N)Cc1ccccc1 [d-Amphetamine]
disruption of PPI ([2]; d-Amphetamine 4 mg/kg s.c., 10 min prior to test, 5 dB, 10 dB & 15 dB prepulse): produced significant disruption across all three prepulse intensities

Cc1cc(C(=O)N2Cc3cnn(C)c3Nc3ccccc32)ccc1CNC(=O)N1CCN(Cc2cc(O)cc(O)c2)CC1 [cpd A, 4,-(3,5-Dihydroxy-benzyl)-piperazine-1-carboxylic acid 2-methyl-4-(3-methyl-4,10-dihydro-3H-2,3,4,9-tetra-aza-benzo[f]azulene-9-carbonyl)-benzylamide]
increase in punished crossings from vehicle (Male Swiss-Webster mice; cpd A 10 mg/kg, ip, 30 minutes prior to testing, p<0.05): 32% | punished crossings (effect in words) (Male Swiss-Webster mice; cpd A 10 mg/kg, ip, antagonist study (FIG. 3), p<0.05, 10 mg/kg): increases punished crossings; also recorded: increased punished crossings compared to vehicle | increase in punished crossings from vehicle (Male Swiss-Webster mice; cpd A 30 mg/kg, ip, 30 minutes prior to testing, p<0.05): 25% | punished crossings (effect in words) (Male Swiss-Webster mice; cpd A 3-100 mg/kg, ip, 30 minutes prior to testing): increases the number of punished crossings; also recorded: significant overall effect on punished crossings | reversal of MK801 induced deficits in PPI ([1]; Cpd A 30 mg/kg i.p. (highest dose of 3-30 mg/kg), 30 mins prior to test): reversed MK801 induced deficits in PPI at 10 dB & 15 dB levels; also recorded: reversed MK801 induced disruption at 10 dB and 15 dB

C[C@]12N[C@H](Cc3ccccc31)c1ccccc12 [MK801]
disruption of PPI ([1]; MK801 0.1 mg/kg s.c., 10 min prior to test, 5 dB, 10 dB & 15 dB prepulse, 0.1 mg/kg): produced significant disruption in PPI across three prepulse intensities; also recorded: produced significant disruption across all three prepulse intensities | startle alone ([1]; MK801 0.1 mg/kg s.c., 10 min prior to test, p >0.05): no effect on startle alone

Cc1cc(C(=O)N2Cc3ccc(C(=O)N(CCO)CCO)n3Cc3ccccc32)ccc1-c1ccccc1C(F)(F)F [cpd B, 10-[(2-Methyl-2′-trifluoromethyl-[1,1′-biphenyl]-4-yl)carbonyl]-10,11-dihydro-5H-pyrrolo[2,1-c][1,4]benzodiazepine-3-carboxylic acid-bis-(2-hydroxy-ethyl)-amide]
reversal of the anxiolytic-like effect of cpd A (Male Swiss-Webster mice; cpd B 10 mg/kg, ip): 63% | reversal of the anxiolytic-like effect of cpd A (Male Swiss-Webster mice; cpd B 30 mg/kg, ip, p<0.05): 100% | blockade of the anxiolytic-like effect of cpd A (in words) (Male Swiss-Webster mice; ip): blocked the anxiolytic-like effect of cpd A in a dose-dependent manner | blockade of the anxiolytic-like effect of cpd A (in words) (Male Swiss-Webster mice; ip, listed as Cpd B): dose-dependently blocks the anxiolytic-like effect of Cpd A | punished crossings (effect in words) (Male Swiss-Webster mice; cpd B administered alone): no effect on punished crossings

Cc1cc(C(=O)N2Cc3cnn(C)c3Nc3ccccc32)ccc1CNC(=O)N1CCN(Cc2cc(O)cc(O)c2)CC1.Cl [Cpd A (HCl salt), 4,-(3,5-Dihydroxy-benzyl)-piperazine-1-carboxylic acid 2-methyl-4-(3-methyl-4,10-dihydro-3H -2,3,4,9-tetra-aza-benzo[f]azulene-9-carbonyl)-benzylamide hydrochloride]
reversal of d-amphetamine induced disruption of PPI ([2]; Cpd A (HCl salt) 10 mg/kg, 10 mg/kg): reversed d-amphetamine induced disruption at 5 dB and 10 dB; also recorded: reversed d-amphetamine—induced deficit at 5 dB and 10 dB | reversal of d-amphetamine induced disruption of PPI ([2]; Cpd A (HCl salt) 30 mg/kg, 30 mg/kg): reversed the d-amphetamine induced disruption at 10 dB
